Test system: 699152-130-R-J1-PDC complex spheroid growth
Experiment: Anticancer human tumor 699152-130-R-J1-PDC patient-derived pancreatic carcinoma cell line growth inhibition [AhR]
Details: for IC50: curve of first compound; for viability, T/C: stronger effect = lower value
In short: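 Agents were dosed in half-log steps down from roughly clinical Cmax, or from 10 microM where Cmax was unknown, alone and with AhR antagonists. Read-out: percent test/control growth of tumor spheroids containing HUVEC and MSC stromal cells.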

[1] = second compound 0.1 µM, first compound 0.0316 µM
[2] = second compound 0.1 µM, first compound 0.1 µM
[3] = second compound 0.1 µM, first compound 0.316 µM
[4] = second compound 0.1 µM, first compound 1 µM
[5] = second compound 0.1 µM, first compound 3.16 µM
[6] = second compound 0.1 µM, first compound 10 µM
[7] = second compound 0.316 µM, first compound 0.0316 µM
[8] = second compound 0.316 µM, first compound 0.1 µM
[9] = second compound 0.316 µM, first compound 0.316 µM
[10] = second compound 0.316 µM, first compound 1 µM
[11] = second compound 0.316 µM, first compound 3.16 µM
[12] = second compound 0.316 µM, first compound 10 µM
[13] = second compound 1 µM, first compound 0.0316 µM
[14] = second compound 1 µM, first compound 0.1 µM
[15] = second compound 1 µM, first compound 0.316 µM
[16] = second compound 1 µM, first compound 1 µM
[17] = second compound 1 µM, first compound 3.16 µM
[18] = second compound 1 µM, first compound 10 µM
[19] = second compound 3.16 µM, first compound 0.0316 µM
[20] = second compound 3.16 µM, first compound 0.1 µM
[21] = second compound 3.16 µM, first compound 0.316 µM
[22] = second compound 3.16 µM, first compound 1 µM
[23] = second compound 3.16 µM, first compound 3.16 µM
[24] = second compound 3.16 µM, first compound 10 µM
[25] = second compound 10 µM, first compound 0.0316 µM
[26] = second compound 10 µM, first compound 0.1 µM
[27] = second compound 10 µM, first compound 0.316 µM
[28] = second compound 10 µM, first compound 1 µM
[29] = second compound 10 µM, first compound 3.16 µM
[30] = second compound 10 µM, first compound 10 µM
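Note: compound exposure lasted 7 days after spheroids had grown for 3 days.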

With `O=C(c1cc(Cc2n[nH]c(=O)c3ccccc23)ccc1F)N1CCN(C(=O)C2CC2)CC1` + Cc1ccccc1N=Nc1ccc(NC(=O)c2ccnn2C)c(C)c1 the IC50 (second compound 0.1 µM) was > 10000 nM, the IC50 (second compound 0.316 µM) was > 10000 nM and the IC50 (second compound 1 µM) was > 10000 nM. For the same molecule, the IC50 (second compound 3.16 µM) was > 10000 nM, the IC50 (second compound 10 µM) was > 10000 nM and the viability, T/C [1] was 90.3%. It also gave a viability, T/C [2] of 92.8%, a viability, T/C [3] of 109% and a viability, T/C [4] of 101%. For the same molecule, the viability, T/C [5] was 97.2%, the viability, T/C [6] was 78.5% and the viability, T/C [7] was 89.6%. It also gave a viability, T/C [8] of 84.2%, a viability, T/C [9] of 109% and a viability, T/C [10] of 90%. For the same molecule, the viability, T/C [11] was 83.5%, the viability, T/C [12] was 85.2% and the viability, T/C [13] was 106%. The viability, T/C [14] was 105%, the viability, T/C [15] was 90.4% and the viability, T/C [16] was 93.8%. For the same molecule, the viability, T/C [17] was 88.6%, the viability, T/C [18] was 85.5% and the viability, T/C [19] was 114%. It also gave a viability, T/C [20] of 99.3%, a viability, T/C [21] of 104% and a viability, T/C [22] of 94.1%. It also gave a viability, T/C [23] of 81.1%, a viability, T/C [24] of 83.1% and a viability, T/C [25] of 123%. For the same molecule, the viability, T/C [26] was 121%, the viability, T/C [27] was 109% and the viability, T/C [28] was 89.3%. The viability, T/C [29] was 94% and the viability, T/C [30] was 85.7%.

For `CC1COCCN1c1cc(C2(S(C)(=N)=O)CC2)nc(-c2ccnc3[nH]ccc23)n1` (stereo not given) + CC(CO)NC(=O)c1cc(-c2ccc(Cl)cc2)nn(-c2cnn(C)c2)c1=O, the IC50 (second compound 0.1 µM) was > 10000 nM, the IC50 (second compound 0.316 µM) was > 10000 nM and the IC50 (second compound 1 µM) was > 10000 nM. The IC50 (second compound 3.16 µM) was > 10000 nM, the IC50 (second compound 10 µM) was > 10000 nM and the viability, T/C [1] was 87.9%. For the same molecule, the viability, T/C [2] was 95.5%, the viability, T/C [3] was 88.7% and the viability, T/C [4] was 94.5%. It also gave a viability, T/C [5] of 79.2%, a viability, T/C [6] of 74.6% and a viability, T/C [7] of 108%. The viability, T/C [8] was 94.2%, the viability, T/C [9] was 101% and the viability, T/C [10] was 85.8%. The viability, T/C [11] was 85.5%, the viability, T/C [12] was 78.5% and the viability, T/C [13] was 98.6%. For the same molecule, the viability, T/C [14] was 101%, the viability, T/C [15] was 94.3% and the viability, T/C [16] was 87.9%. It also gave a viability, T/C [17] of 84%, a viability, T/C [18] of 68% and a viability, T/C [19] of 80.4%. For the same molecule, the viability, T/C [20] was 112%, the viability, T/C [21] was 88.5% and the viability, T/C [22] was 86.4%. For the same molecule, the viability, T/C [23] was 73.4%, the viability, T/C [24] was 62.8% and the viability, T/C [25] was 78.5%. It also gave a viability, T/C [26] of 82.2%, a viability, T/C [27] of 91.3% and a viability, T/C [28] of 76.4%. It also gave a viability, T/C [29] of 72.5% and a viability, T/C [30] of 68.2%.

With `NS(=O)(=O)OCC1CC(n2ccc3c(NC4CCc5ccccc54)ncnc32)CC1O` (stereo not given) + Cc1ccccc1N=Nc1ccc(NC(=O)c2ccnn2C)c(C)c1 the IC50 (second compound 0.1 µM) was 807 nM, the IC50 (second compound 0.316 µM) was 724 nM and the IC50 (second compound 1 µM) was 739 nM. It also gave an IC50 (second compound 3.16 µM) of 694 nM, an IC50 (second compound 10 µM) of 542 nM and a viability, T/C [1] of 98.3%. For the same molecule, the viability, T/C [2] was 107%, the viability, T/C [3] was 107% and the viability, T/C [4] was 37.5%. It also gave a viability, T/C [5] of 21.6%, a viability, T/C [6] of 25.2% and a viability, T/C [7] of 102%. The viability, T/C [8] was 103%, the viability, T/C [9] was 104% and the viability, T/C [10] was 29.4%. For the same molecule, the viability, T/C [11] was 18.5%, the viability, T/C [12] was 20.1% and the viability, T/C [13] was 105%. It also gave a viability, T/C [14] of 116%, a viability, T/C [15] of 105% and a viability, T/C [16] of 30.3%. It also gave a viability, T/C [17] of 20.2%, a viability, T/C [18] of 27.1% and a viability, T/C [19] of 115%. For the same molecule, the viability, T/C [20] was 115%, the viability, T/C [21] was 96.7% and the viability, T/C [22] was 28.4%. The viability, T/C [23] was 20.8%, the viability, T/C [24] was 24.9% and the viability, T/C [25] was 122%. For the same molecule, the viability, T/C [26] was 125%, the viability, T/C [27] was 67.3% and the viability, T/C [28] was 32.9%. For the same molecule, the viability, T/C [29] was 27.2% and the viability, T/C [30] was 30.8%.

In the case of `COc1cc(Nc2ncc3c(n2)-c2ccc(Cl)cc2C(c2c(F)cccc2OC)=NC3)ccc1C(=O)O` + Cc1ccccc1N=Nc1ccc(NC(=O)c2ccnn2C)c(C)c1, the IC50 (second compound 0.1 µM) is reported as > 10000 nM, the IC50 (second compound 0.316 µM) is reported as 6410 nM and the IC50 (second compound 1 µM) is reported as > 10000 nM. For the same molecule, the IC50 (second compound 3.16 µM) was > 10000 nM, the IC50 (second compound 10 µM) was > 10000 nM and the viability, T/C [1] was 89.9%. The viability, T/C [2] was 80.2%, the viability, T/C [3] was 65.3% and the viability, T/C [4] was 54.5%. The viability, T/C [5] was 54.4%, the viability, T/C [6] was 56.6% and the viability, T/C [7] was 83.1%. For the same molecule, the viability, T/C [8] was 68.7%, the viability, T/C [9] was 65.5% and the viability, T/C [10] was 59.5%. It also gave a viability, T/C [11] of 51.7%, a viability, T/C [12] of 48.4% and a viability, T/C [13] of 86.8%. It also gave a viability, T/C [14] of 71.7%, a viability, T/C [15] of 74.3% and a viability, T/C [16] of 60.5%. For the same molecule, the viability, T/C [17] was 56.9%, the viability, T/C [18] was 51.7% and the viability, T/C [19] was 86.3%. The viability, T/C [20] was 82.6%, the viability, T/C [21] was 68.9% and the viability, T/C [22] was 61.1%. For the same molecule, the viability, T/C [23] was 54.2%, the viability, T/C [24] was 50.1% and the viability, T/C [25] was 91.7%. The viability, T/C [26] was 94.7%, the viability, T/C [27] was 74.8% and the viability, T/C [28] was 64.8%. The viability, T/C [29] was 66.8% and the viability, T/C [30] was 63.6%.

`CCc1c2c(nc3ccc(O)cc13)-c1cc3c(c(=O)n1C2)COC(=O)[C@]3(O)CC` + CC(CO)NC(=O)c1cc(-c2ccc(Cl)cc2)nn(-c2cnn(C)c2)c1=O showed an IC50 (second compound 0.1 µM) of 18.2 nM, an IC50 (second compound 0.316 µM) of 26.4 nM and an IC50 (second compound 1 µM) of 42.1 nM. For the same molecule, the IC50 (second compound 3.16 µM) was 22.1 nM, the IC50 (second compound 10 µM) was 47.3 nM and the viability, T/C (second compound 0.1 µM, first compound 0.000949 µM) was 89%. For the same molecule, the viability, T/C (second compound 0.1 µM, first compound 0.003 µM) was 83.5%, the viability, T/C (second compound 0.1 µM, first compound 0.00949 µM) was 56.5% and the viability, T/C (second compound 0.1 µM, first compound 0.03 µM) was 46.2%. For the same molecule, the viability, T/C (second compound 0.1 µM, first compound 0.0949 µM) was 48%, the viability, T/C (second compound 0.1 µM, first compound 0.3 µM) was 35.7% and the viability, T/C (second compound 0.316 µM, first compound 0.000949 µM) was 83.3%. The viability, T/C (second compound 0.316 µM, first compound 0.003 µM) was 75.5%, the viability, T/C (second compound 0.316 µM, first compound 0.00949 µM) was 58.9% and the viability, T/C (second compound 0.316 µM, first compound 0.03 µM) was 49.4%. The viability, T/C (second compound 0.316 µM, first compound 0.0949 µM) was 44.8%, the viability, T/C (second compound 0.316 µM, first compound 0.3 µM) was 41.3% and the viability, T/C (second compound 1 µM, first compound 0.000949 µM) was 85.7%. It also gave a viability, T/C (second compound 1 µM, first compound 0.003 µM) of 75.4%, a viability, T/C (second compound 1 µM, first compound 0.00949 µM) of 61.3% and a viability, T/C (second compound 1 µM, first compound 0.03 µM) of 51.4%. It also gave a viability, T/C (second compound 1 µM, first compound 0.0949 µM) of 47.2%, a viability, T/C (second compound 1 µM, first compound 0.3 µM) of 41.5% and a viability, T/C (second compound 3.16 µM, first compound 0.000949 µM) of 72.3%. For the same molecule, the viability, T/C (second compound 3.16 µM, first compound 0.003 µM) was 64.4%, the viability, T/C (second compound 3.16 µM, first compound 0.00949 µM) was 57.2% and the viability, T/C (second compound 3.16 µM, first compound 0.03 µM) was 45.3%. It also gave a viability, T/C (second compound 3.16 µM, first compound 0.0949 µM) of 42%, a viability, T/C (second compound 3.16 µM, first compound 0.3 µM) of 31.4% and a viability, T/C (second compound 10 µM, first compound 0.000949 µM) of 71.9%. The viability, T/C (second compound 10 µM, first compound 0.003 µM) was 69.4%, the viability, T/C (second compound 10 µM, first compound 0.00949 µM) was 61.7% and the viability, T/C (second compound 10 µM, first compound 0.03 µM) was 52.6%. For the same molecule, the viability, T/C (second compound 10 µM, first compound 0.0949 µM) was 45.9% and the viability, T/C (second compound 10 µM, first compound 0.3 µM) was 28.4%.
